Measurements taken from patent US4882359A, “Azacycloalkane derivatives, absorption promoters containing the derivatives as the effective ingredient and external preparations containing the absorption promoters” (priority 1986, dated 1989).

What was measured:
glucose level in blood [1] = assay: Rectal absorption of insulin from suppository: glucose level in blood of rabbits; assay type: in vivo, male rabbits; settings: for Changes of glucose level to the initial, 0.5 hr / Changes of glucose level to the initial, 1 hr / Changes of glucose level to the initial, 3 hrs: insulin suppository 0.3 g/kg rectal, 3% promoter where used
Method: There were prepared the following suppositories for use in normal, control and test groups, respectively, each group consisting of five male rabbits weighing 2.5 to 3.5 kg each.
The three suppositories were into the rectums of the rabbit groups in an amount of 0.3 g suppository/kg, respectively. Thereafter, blood was collected from the rabbits through their ear vein three times with the lapse of time to measure the three collected blood samples for glucose level in blood by a glucose oxidase method. […] The results are indicated in terms of a change in glucose level in blood with respect to the glucose level in blood prior to the administration of the suppositories.

in vivo = settings: rat
[2] = test system: dorsal skin of Japanese-native rabbits; assay: Primary skin irritation test (Draize's method); assay type: in vivo; set-up: key to Average irritation score, 24 hours / Average irritation score, 48 hours / Average irritation score, 72 hours: Draize points: 0-2 mild, 2-6 moderate, 6-8 severe irritation; settings: for Average irritation score, 24 hours: 3% solution in polyethylene glycol 300, 24 hours after removal of plaster; for Average irritation score, 48 hours: 3% solution in polyethylene glycol 300, 48 hours after removal of plaster; for Average irritation score, 72 hours: 3% solution in polyethylene glycol 300, 72 hours after removal of plaster; for Overall evaluation (skin irritation): graded from irritation scores at 24, 48 and 72 hours
Method: As one of tests on the compounds of this invention for their topical toxicity, a primary skin irritation test was made on skins using rabbits as the subjects. More particularly, an adhesive plaster for use in batch tests, to which 100 μl of a 3% test solution of each of the compounds of Examples 12, 37, 57 and 73 of this invention in 100 ml of polyethylene glycol 300 had dropwise been applied, was applied to the hair-shorn dorsal skin of three Japanese-native rabbits weighing 2.5 to 3.0 kg each and then sealed up on the dorsal skin for 24 hours. The rabbits were evaluated three times for their dorsal skin irritative reaction 24, 48 and 72 hours after removal of the plaster by using a method in accordance with the Draize's method.
The results are as shown in Table 18 in which the overall evaluation is represented by the following equation. [formula] and is graded into mild irritation (0-2 points), moderate irritation (2-6 points) and severe irritation (6-8 points).

[3] = for Activity (phenol red permeation): relative to Control (Vehicle) = 1.0
Method: There were investigated the effects of the compound of this invention on the percutneous penetration of phenol red which is difficult to be penetrated using the dorsal skin of female hairless mice (each 9 weeks old) by a diffusion cell method which comprised adding 0.5 ml of a sodium chloride injection containing 2 mM of phenol red to the donor side and measuring the amount of phenol red permeated into the receptor layer by high-pace optimal densitometric meter (559 nm).

glucose level in blood [4] = assay: Percutaneous absorption of glibenclamide: glucose level in blood of glucose-loaded rats; assay type: in vivo, Wistar-strain male rats; settings: for Glucose level: glibenclamide 0.6 wt.% solution on dorsal skin, two hours after s.c. 20% glucose; for Inhibition rate: glucose level, relative to control group A and normal group
Method: There were prepared control and test solutions having the following respective formulations (Table 8): […]
In the tests, there were used groups each consisting of four Wistar-strain male rats which weighed about 200 to 250 g and abstained from food for 24 hours.
Each of the control solutions A and B and the test solution indicated in the above Table 8 was applied to the dorsal skins, shorn by an electric clipper or shaver, of the rats of one group in an amount of 175 μl/2.5×2.5 cm^2 and then sealed up. Three hours after sealing up, 1.5 ml of 20% glucose was subcutaneously injected into said rats. Two hours after the glucose injection, the blood of the rats was collected and measured for glucose level in blood.
For comparison, the above procedure was followed except that azone was substituted for the compound of Example 12 in the test solution.
For further comparison, the blood of rats of one group which had been subjected only to 24 hours' abstinence from food (this group being hereinafter referred to as "normal group"), was measured for glucose level in blood. The rat groups to which the control solution A, the control solution B and the test solution were applied, are hereinafter referred to as "control group A", "control group B" and "test group", respectively.

[5] = Percutaneous absorption of pindolol in rats, serum concentration by HPLC; assay type: in vivo, Wistar-strain male rats; settings: for Activity (serum concentration of pindolol): relative to Control (Vehicle) = 1.0 of the same series in Table 5
Method: There were provided groups each consisting of four Wistar-strain male rats each weighing 200 to 250 g and having their dorsal skin hair shorn with an electric shaver.
Each of the test solutions (pindolol-containing preparations) was applied to the shorn dorsal skin of test rats of one of the groups in an amount of 150 μl/2.5×2.5 cm^2 and then sealed up. Three hours after the application of the test solution, the blood of the test rats was collected and measured for serum concentration of pindolol by HPLC.
For comparison, the above procedure was followed except that there was used a control solution which was the same as said test solution except for non-use of any compounds of this invention, and also followed using a comparative test solution which was the same as the test solution except for the substitution of a comparative compound for the compound of this invention.

[6] = Skin penetration of 5-FU from test solution, diffusion cell method; assay type: in vitro ADME, female hairless mice; settings: for Cumulative amount of 5-FU permeated, 24 hrs later / Cumulative amount of 5-FU permeated, 48 hrs later: 3.0 wt.% test compound, 5-FU 1.8 wt.% in ethanol/water; for Activity (5-FU permeation): relative to Control (Vehicle) = 1.0
[7] = Skin penetration of pindolol from test solution, diffusion cell method; assay type: in vitro ADME, female hairless mice; settings: for Activity (pindolol permeation): test solution, relative to Control (Vehicle) = 1.0

Compound: Insulin: Insulin (Bovine, International Unit); control group (only insulin used)
- effects on glucose level in blood (in words) (glucose level in blood [1]; compared with the normal group): exhibited no effects on glucose level in blood
- Changes of glucose level to the initial, 0.5 hr (glucose level in blood [1]): -1 mg/dL
- Changes of glucose level to the initial, 1 hr (glucose level in blood [1]): +3 mg/dl
- Changes of glucose level to the initial, 3 hrs (glucose level in blood [1]): +1 mg/dl

Compound: CCCCCCCCCCCCN1CCCCCC1=O [Azone, 1-n-dodecylazacycloheptane-2-one, reference compound]
- LD50 at 168 h (in vivo; po): > 5000 mg/kg
- LD50 at 168 h (in vivo; sc): > 5000 mg/kg
- Average irritation score, 24 hours [2]: 3.8 ± 1.3
- Average irritation score, 48 hours [2]: 3.8 ± 1.7
- Average irritation score, 72 hours [2]: 5.5 ± 1.9
- Overall evaluation (skin irritation) [2]: Moderate (moderate irritation (2-6 points))
- irritating actions on the skins (in words) ([2]; rabbit, in vivo): moderate grade irritating actions
- Changes of glucose level to the initial, 0.5 hr (glucose level in blood [1]): -4 mg/dL
- Changes of glucose level to the initial, 1 hr (glucose level in blood [1]): +2 mg/dl
- Changes of glucose level to the initial, 3 hrs (glucose level in blood [1]): +1 mg/dl
- Cumulative amount of phenol red permeated, 24 hrs later ([3]; 3.0 wt.% test compound, phenol red, 24 hrs): 8.4 ± 7.6 µM
- Cumulative amount of phenol red permeated, 48 hrs later ([3]; 3.0 wt.% test compound, phenol red, 48 hrs): 14.5 ± 0.7 µM
- Activity (phenol red permeation) [3]: 24.2
- Glucose level (glucose level in blood [4]): 133 ± 13 mg/dL
- Inhibition rate (glucose level in blood [4]): 25.0%

Compound: CCCCCCCCCCOCCCN1CCCCCC1=O [Example 72]
- Activity (serum concentration of pindolol) [5]: 27.2

Compound: CCCCCCCSCCCCCN1CCCCCC1=O [Example 43]
- Activity (serum concentration of pindolol) [5]: 16.2

Compound: CCCCCCCOCCCCCN1CCCC1=O [Example 66]
- Activity (serum concentration of pindolol) [5]: 30.2

Compound: CN1CCCC1=O [1-methyl-2-pyrolidone, 1-methyl-2-pyrrolidone, reference compound]
- LD50 at 168 h (in vivo; po): 1000 to 2000 mg/kg
- LD50 at 168 h (in vivo; sc): 2000 to 5000 mg/kg
- Cumulative amount of 5-FU permeated, 24 hrs later [6]: 83 ± 15 µM
- Cumulative amount of 5-FU permeated, 48 hrs later [6]: 192 ± 20 µM
- Activity (5-FU permeation) [6]: 0.9
- Activity (serum concentration of pindolol) [5]: 1.9

Compound: CCCCCCCSCCCN1CCCCCC1=O [Example 29]
- Activity (serum concentration of pindolol) [5]: 14.8

Compound: CCCCCCCCCSCCN1CCCC1=O [Example 1, 1-[2-(n-nonylthio)ethyl] azacyclopentane-2-one]
- Activity (serum concentration of pindolol) [5]: 30.0

Compound: CCCCCCCCCSCCCN1CCCCCC1=O [Example 31]
- Activity (serum concentration of pindolol) [5]: 27.5

Compound: CCCCCCCCOCCCCN1CCCCCC1=O [Example 74]
- Activity (serum concentration of pindolol) [5]: 28.9

Compound: CCCCCCOCCCCCN1CCCCCC1=O [Example 76]
- Activity (serum concentration of pindolol) [5]: 8.3

Compound: COc1ccc(Cl)cc1C(=O)NCCc1ccc(S(=O)(=O)NC(=O)NC2CCCCC2)cc1 [Glibenclamide]
- Glucose level (glucose level in blood [4]): 157 ± 7 mg/dL
- effects on hypoglycemic activity (glucose level in blood [4]; glibenclamide used alone, compared with control group A): not exhibit any effects on hypoglycemic activity
- Inhibition rate (glucose level in blood [4]): -3.6%

Compound: CCCCCSCCCCN1CCCCCC1=O [Example 35]
- Activity (serum concentration of pindolol) [5]: 8.8

Compound: CCCCCCCCCSCCCCN1CCCCCC1=O [Example 39]
- Activity (serum concentration of pindolol) [5]: 18.0

Compound: CCCCCCCSCCCCN1CCCCCC1=O [Example 37]
- LD50 at 168 h (in vivo; po): > 5000 mg/kg
- LD50 at 168 h (in vivo; sc): > 5000 mg/kg
- Average irritation score, 24 hours [2]: 0.6 ± 2
- Average irritation score, 48 hours [2]: 0.5 ± 0.5
- Average irritation score, 72 hours [2]: 0.5 ± 0.5
- Overall evaluation (skin irritation) [2]: Mild (mild irritation (0-2 points))
- Activity (phenol red permeation) [3]: 54.2
- Activity (serum concentration of pindolol) [5]: 16.2

Compound: CCCCCCCCSCCCN1CCCCCC1=O [Example 30]
- Activity (serum concentration of pindolol) [5]: 12.7

Compound: CCCSCCCCCCCCN1CCCCCC1=O [Example 50]
- Activity (serum concentration of pindolol) [5]: 6.6

Compound: CCCCCCCCCCOCCN1CCCC1=O [Example 57]
- LD50 at 168 h (in vivo; po): > 5000 mg/kg
- LD50 at 168 h (in vivo; sc): > 5000 mg/kg
- Average irritation score, 24 hours [2]: 0.0 ± 0.0
- Average irritation score, 48 hours [2]: 0.3 ± 0.3
- Average irritation score, 72 hours [2]: 0.3 ± 0.3
- Overall evaluation (skin irritation) [2]: Mild (mild irritation (0-2 points))
- Activity (phenol red permeation) [3]: 65.5
- Activity (serum concentration of pindolol) [5]: 33.0

Compound: C[S+](C)[O-] [DMSO, dimethylsulfoxide, reference compound]
- Serum concentration of pindolol ([5]; rat, in vivo, 180 min): 12.0 ± 4.2 ng/mL
- Activity (serum concentration of pindolol) [5]: 1.0

Compound: CCCCCCSCCCCCCN1CCCCCC1=O [Example 48]
- Activity (serum concentration of pindolol) [5]: 14.9

Compound: CCN1CCCC1=O [1-ethyl-2-pyrolidone, 1-ethyl-2-pyrrolidone]
- Cumulative amount of pindolol permeated, 24 hrs later [7]: 1.3 ± 0.1 µM
- Cumulative amount of pindolol permeated, 48 hrs later [7]: 2.7 ± 0.2 µM
- Activity (pindolol permeation) [7]: 0.7
- Cumulative amount of 5-FU permeated, 24 hrs later [6]: 96 ± 15 µM
- Cumulative amount of 5-FU permeated, 48 hrs later [6]: 178 ± 9 µM
- Activity (5-FU permeation) [6]: 0.9
- Activity (serum concentration of pindolol) [5]: 2.8

Compound: CCCCCCCSCCCCCN1CCCC1=O [Example 20]
- Activity (serum concentration of pindolol) [5]: 40.6

Compound: CCCCCCCCOCCCN1CCCCCC1=O [Example 4, 1-[3-(n-octyloxy)propyl] azacycloheptane-2-one]
- Activity (serum concentration of pindolol) [5]: 31.5

Compound: CCCCSCCCCCCCN1CCCCCC1=O [Example 49]
- Activity (serum concentration of pindolol) [5]: 23.2

Compound: CCCCCCSCCCCN1CCCCCC1=O [Example 36]
- Activity (serum concentration of pindolol) [5]: 19.6

Compound: CCCCCSCCCCCCN1CCCCCC1=O [Example 2, 1-[6-(n-pentylthio)hexyl] azacycloheptane-2-one]
- Activity (serum concentration of pindolol) [5]: 12.7

Compound: CCCCCCCCCCSCCCN1CCCC1=O [Example 16]
- Activity (serum concentration of pindolol) [5]: 32.0

Compound: CCCCCCOCCCCCCN1CCCCCC1=O [Example 80]
- Activity (serum concentration of pindolol) [5]: 26.1

Compound: CCCCCCCOCCCCN1CCCCCC1=O [Example 73]
- LD50 at 168 h (in vivo; po): > 5000 mg/kg
- LD50 at 168 h (in vivo; sc): > 5000 mg/kg
- Average irritation score, 24 hours [2]: 0.3 ± 0.3
- Average irritation score, 48 hours [2]: 0.3 ± 0.3
- Average irritation score, 72 hours [2]: 0.5 ± 0.5
- Overall evaluation (skin irritation) [2]: Mild (mild irritation (0-2 points))
- Activity (phenol red permeation) [3]: 56.3
- Activity (serum concentration of pindolol) [5]: 34.1

Compound: CCCCCCCCSCCCCN1CCCCCC1=O [Example 38]
- Activity (serum concentration of pindolol) [5]: 12.0

Compound: CCCCCOCCCCCCN1CCCC1=O [Example 67]
- Activity (serum concentration of pindolol) [5]: 22.8

Compound: Pyrrolidone carboxylic acid [Pyrolidone carbonic acid, reference compound]
- Activity (pindolol permeation) [7]: 0.5
- Activity (serum concentration of pindolol) [5]: 2.1
